Laboratory results taken from the supplement of paper PMC10307832.

Experiments:
Assay in all cases: relative viability (nuclei count vs DMSO), 5 days (fraction); higher = more cells survive
Zebularine + Palbociclib = compound: O=c1ncccn1[C@@H]1O[C@H](CO)[C@@H](O)[C@H]1O [Zebularine] + CC(=O)c1c(C)c2cnc(Nc3ccc(N4CCNCC4)cn3)nc2n(C2CCCC2)c1=O [Palbociclib] (partner 0.5 µM)
Method in brief: (§1)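 Medians of duplicate plates are given as relative viability. That measure is the nuclei count in treated wells divided by the count in vehicle wells. Counts were taken on 4× images of lung cancer cell lines in 1536-well plates, 5 days after pin-tool dosing the day after seeding with one drug alone or a fixed anchor-drug dose plus five library-drug doses (not always all listed) in √10 steps.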

BI-D1870 + Tozasertib = compound: CC(C)CCN1c2nc(Nc3cc(F)c(O)c(F)c3)ncc2N(C)C(=O)C1C [BI-D1870] + Cc1cc(Nc2cc(N3CCN(C)CC3)nc(Sc3ccc(NC(=O)C4CC4)cc3)n2)n[nH]1 [Tozasertib] (partner 0.1 µM)
Method in brief: as §1

Zebularine + Navitoclax = compound: O=c1ncccn1[C@@H]1O[C@H](CO)[C@@H](O)[C@H]1O [Zebularine] + CC1(C)CCC(c2ccc(Cl)cc2)=C(CN2CCN(c3ccc(C(=O)NS(=O)(=O)c4ccc(N[C@H](CCN5CCOCC5)CSc5ccccc5)c(S(=O)(=O)C(F)(F)F)c4)cc3)CC2)C1 [Navitoclax] (partner 0.5 µM)
Method in brief: as §1

Zebularine + Linsitinib = compound: O=c1ncccn1[C@@H]1O[C@H](CO)[C@@H](O)[C@H]1O [Zebularine] + C[C@]1(O)C[C@@H](c2nc(-c3ccc4ccc(-c5ccccc5)nc4c3)c3c(N)nccn32)C1 [Linsitinib] (partner 1 µM)
Method in brief: as §1

| Cell Line | relative viability (Zebularine + Palbociclib; first compound 1 µM) | relative viability (Zebularine + Palbociclib; first compound 3.162 µM) | relative viability (Zebularine + Palbociclib; first compound 10 µM) | relative viability (Zebularine + Palbociclib; first compound 31.62 µM) | relative viability (Zebularine + Palbociclib; first compound 100 µM) | relative viability (BI-D1870 + Tozasertib; first compound 0.04 µM) | relative viability (BI-D1870 + Tozasertib; first compound 0.1265 µM) | relative viability (BI-D1870 + Tozasertib; first compound 0.4 µM) | relative viability (BI-D1870 + Tozasertib; first compound 1.265 µM) | relative viability (BI-D1870 + Tozasertib; first compound 4 µM) | relative viability (Zebularine + Navitoclax; first compound 1 µM) | relative viability (Zebularine + Navitoclax; first compound 3.162 µM) | relative viability (Zebularine + Navitoclax; first compound 10 µM) | relative viability (Zebularine + Navitoclax; first compound 31.62 µM) | relative viability (Zebularine + Navitoclax; first compound 100 µM) | relative viability (Zebularine + Linsitinib; first compound 1 µM) | relative viability (Zebularine + Linsitinib; first compound 3.162 µM) | relative viability (Zebularine + Linsitinib; first compound 10 µM) | relative viability (Zebularine + Linsitinib; first compound 31.62 µM) | relative viability (Zebularine + Linsitinib; first compound 100 µM) |
| --- | --- | --- | --- | --- | --- | --- | --- | --- | --- | --- | --- | --- | --- | --- | --- | --- | --- | --- | --- | --- |
| NCI-H1975 | 0.818 | 0.596 | 0.291 | 0.317 | 0.259 | 0.79 | 0.509 | 0.223 | 0.176 | 0.145 | 1.13 | 1.08 | 0.64 | 0.575 | 0.229 | 1.01 | 0.861 | 0.582 | 0.456 | 0.271 |
| CAL-12T | 0.474 | 0.423 | 0.409 | 0.557 | 0.353 | 0.324 | 0.317 | 0.185 | 0.261 | 0.194 | 1.53 | 1.32 |  | 1.28 | 0.918 | 0.819 | 0.794 | 0.716 | 0.896 | 0.464 |
| NCI-H1623 |  |  |  |  |  | 0.404 | 0.412 | 0.478 | 0.452 | 0.376 |  |  |  |  |  |  |  |  |  |  |
| HCC-44 | 0.945 | 0.998 | 1.07 | 1.16 | 0.5 | 1.29 | 0.89 | 0.855 | 0.602 | 0.404 | 0.965 | 0.943 | 0.669 | 0.973 | 0.248 | 0.77 | 0.655 | 0.466 | 0.577 | 0.218 |
| EKVX | 0.692 | 0.398 |  | 0.343 | 0.413 | 0.433 | 0.379 | 0.378 | 0.287 | 0.206 | 1.03 | 0.755 |  | 0.947 | 1.03 | 1.16 | 1.01 |  | 1.15 | 0.979 |
| NCI-H1651 | 0.525 | 0.491 | 0.507 | 0.557 | 0.352 | 0.9 | 0.487 | 0.784 | 0.647 | 0.344 | 1.22 | 1.03 |  | 0.971 | 0.506 | 1 | 0.893 |  | 0.904 | 0.465 |
| NCI-H1944 | 0.309 | 0.353 | 0.339 | 0.36 | 0.329 | 0.293 | 0.233 | 0.25 | 0.262 | 0.235 | 1.11 | 0.984 | 0.705 | 0.9 | 0.669 | 1.34 | 1.14 | 0.979 | 1.19 | 0.784 |
| NCI-H1703 |  |  |  |  |  |  |  |  |  |  | 1.17 | 0.915 | 0.859 | 1.31 | 0.813 | 0.633 | 0.512 | 0.644 | 0.941 | 0.525 |
| Calu-6 |  |  |  |  |  |  |  |  |  |  | 1.03 | 0.825 | 0.649 | 0.647 | 0.225 | 1.03 | 0.946 | 0.734 | 0.864 | 0.209 |
| EBC-1 |  |  |  |  |  |  |  |  |  |  | 0.398 | 0.353 | 0.376 | 0.337 | 0.37 | 1.1 | 0.975 | 0.979 | 1.21 | 0.854 |
| SW 1573 | 0.451 | 0.435 |  | 0.391 | 0.38 | 0.175 | 0.16 | 0.159 | 0.176 | 0.175 | 1.04 | 0.735 | 0.6 | 0.947 | 0.529 | 0.762 | 0.851 | 0.533 | 0.779 | 0.406 |
| A-427 | 0.581 | 0.542 | 0.472 | 0.385 | 0.296 | 0.202 | 0.213 | 0.21 | 0.238 | 0.221 | 0.974 | 0.932 | 0.563 | 0.483 | 0.205 | 1.12 | 1.08 | 0.855 | 0.513 | 0.256 |
| NCI-H2347 | 0.471 | 0.411 | 0.414 | 0.471 | 0.338 | 0.635 | 0.501 | 0.595 | 0.516 | 0.335 | 0.836 | 0.81 | 0.563 | 0.475 | 0.369 | 1.04 | 0.99 | 0.854 | 0.724 | 0.478 |
| NCI-H1355 | 0.402 | 0.371 | 0.384 | 0.303 | 0.252 | 0.598 | 0.528 | 0.498 | 0.374 | 0.384 | 0.955 | 0.894 | 0.898 | 0.456 | 0.306 | 1 | 0.769 | 0.752 | 0.513 | 0.283 |
| NCI-H358 | 0.213 | 0.128 | 0.134 | 0.131 | 0.132 | 0.124 | 0.0956 | 0.118 | 0.127 | 0.113 |  |  |  |  |  | 0.796 | 0.822 | 0.469 | 0.516 | 0.26 |
| PC-3 [JPC-3] | 0.537 | 0.535 | 0.507 | 0.605 | 0.514 | 0.913 | 0.911 | 0.866 | 0.902 | 0.8 | 0.751 | 0.749 | 0.603 | 0.748 | 0.583 | 1.05 | 0.956 | 0.843 | 0.856 | 0.492 |
| NCI-H2228 | 0.861 | 0.637 |  | 0.552 | 0.216 | 0.226 | 0.205 | 0.163 | 0.164 | 0.134 | 1.46 | 0.843 | 0.655 | 0.722 | 0.191 | 0.616 | 0.666 | 0.514 | 0.509 | 0.409 |
| HOP-62 | 0.496 | 0.437 | 0.218 | 0.158 | 0.152 | 0.371 | 0.371 | 0.407 | 0.39 | 0.301 | 1.11 | 1.01 | 0.424 | 0.217 | 0.197 | 1.05 | 0.848 | 0.557 | 0.188 | 0.118 |
| HARA | 0.242 | 0.279 |  | 0.292 | 0.235 | 0.129 | 0.101 | 0.128 | 0.139 | 0.0974 | 1.14 | 1.13 |  | 1.1 | 0.718 | 1.01 | 0.923 |  | 0.968 | 0.623 |
